Experiments:
[1] = system: Venezuelan equine encephalitis virus; assay: Antiviral activity against Venezuelan equine encephalitis virus TC-83 strain infected in human U-87 MG cells assessed as reduction in viral infection measured after 18 hrs post infection by Nano luciferase assay relative to control; assay type: functional, organism-based; conditions: TC-83, U-87 MG
[2] = Cytotoxicity against DENV infected human Huh-7 cells assessed as reduction in cell viability by alamar blue assay; assay type: cell-based; conditions: DENV-infected Huh-7 cells
[3] = Cytotoxicity against Venezuelan equine encephalitis virus TC-83 strain infected human U-87 MG cells assessed as reduction in cell viability by alamar blue assay; assay type: cell-based, U-87MG ATCC
[4] = system: dengue virus type 2; assay: Antiviral activity against DENV2 New Guinea C strain infected in human Huh7 cells assessed as reduction in viral infection measured after 48 hrs post infection by renilla luciferase assay relative to control; assay type: functional, organism-based; conditions: Huh-7, 48 h

Row | SMILES | EC50 [1] [µM] | CC50 [2] [µM] | CC50 [3] [µM] | EC50 [4] [µM]
1 | COc1cc(Nc2ccnc3ccc(C(F)(F)F)cc23)cc(OC)c1OC | 1.6 | > 10 | > 10 | –
2 | FC(F)(F)c1ccc2nccc(Nc3ccc4c(c3)OCCO4)c2c1 | > 10 | > 10 | > 10 | > 10
3 | C#Cc1cc(Nc2ncnc3ccc(I)cc23)ccc1F | > 10 | > 10 | > 10 | 5
4 | FC(F)(F)c1ccc2nccc(Nc3ccc(Cl)c(Cl)c3)c2c1 | 0.5 | > 10 | > 10 | 3.3
5 | CC(=O)c1cccc(Nc2ccnc3ccc(C(F)(F)F)cc23)c1 | > 10 | > 10 | > 10 | 6.8
6 | N#Cc1ccccc1Nc1ccnc2ccc(C(F)(F)F)cc12 | > 10 | > 10 | > 10 | > 10
7 | C#Cc1cccc(Nc2ncnc3cc(OC)ccc23)c1 | > 10 | > 10 | > 10 | > 10
8 | C#Cc1cccc(Nc2ccnc3cc(OC)c(OC)cc23)c1 | 7.5 | > 10 | > 10 | 8.6
9 | COc1ccc(Nc2ccnc3ccc(C(F)(F)F)cc23)cc1 | 0.88 | > 10 | > 10 | 7.7
10 | FC(F)(F)c1ccc2nccc(Nc3ccc4c(c3)OCO4)c2c1 | 1.5 | > 10 | > 10 | 4.1
11 | COc1cc(Nc2ccnc3ccc(C(F)(F)F)cc23)cc(OC)c1 | 2.1 | > 10 | > 10 | 1.3
12 | FC(F)(F)c1ccc2nccc(Nc3ccc(Cl)cc3)c2c1 | 1.9 | > 10 | > 10 | 7.2
13 | Fc1ccc(Nc2ccnc3ccc(C(F)(F)F)cc23)cc1 | > 10 | > 10 | > 10 | > 10
14 | COc1cccc(Nc2ccnc3ccc(C(F)(F)F)cc23)c1 | 5.5 | > 10 | > 10 | 0.82
15 | C#Cc1cccc(Nc2ncnc3cc(OCCOC)c(OCCOC)cc23)c1 [ERLOTINIB] | > 20 | – | – | –
16 | FC(F)(F)c1ccc2nccc(Nc3cccc(Cl)c3)c2c1 | 4.8 | > 10 | > 10 | 7.9
17 | C#Cc1cc(Nc2ncnc3cc(C#N)ccc23)ccc1F | 3.9 | > 10 | > 10 | > 10
18 | COc1cccc(Nc2ccnc3cc(OC)c(OC)cc23)c1 | 4.8 | > 10 | > 10 | 5.9
19 | FC(F)(F)c1ccc2nccc(Nc3ccccc3Cl)c2c1 | 6.4 | > 10 | > 10 | > 10
20 | CS(=O)(=O)c1ccc(Nc2ccnc3ccc(C(F)(F)F)cc23)cc1 | > 10 | > 10 | > 10 | 6.1
21 | Fc1cc(Nc2ccnc3ccc(C(F)(F)F)cc23)ccc1Cl | 1.7 | > 10 | > 10 | 4.1
22 | C#Cc1ccc(F)c(Nc2ncnc3cc(OC)c(OC)cc23)c1 | 7.8 | > 10 | > 10 | 9
23 | FC(F)(F)c1ccc2nccc(Nc3ccccc3Br)c2c1 | > 10 | > 10 | > 10 | > 10
24 | C#Cc1cccc(Nc2ccnc3cc(OC)ccc23)c1 | > 10 | > 10 | > 10 | 1.7
25 | C#Cc1cccc(Nc2ncnc3cc(OC)c(OC)cc23)c1F | 10 | > 10 | > 10 | > 10
26 | Fc1cc(Cl)cc(Nc2ccnc3ccc(C(F)(F)F)cc23)c1 | 5.8 | > 10 | > 10 | 9.3
27 | Fc1ccccc1Nc1ccnc2ccc(C(F)(F)F)cc12 | > 10 | > 10 | > 10 | > 10

Row | SMILES | EC50 [1] [µM] | CC50 [2] [µM] | CC50 [3] [µM] | EC50 [4] [µM]
28 | FC(F)(F)c1ccc2nccc(Nc3cccc(Br)c3)c2c1 | 2.3 | > 10 | > 10 | 6.1
29 | COc1ccccc1Nc1ccnc2ccc(C(F)(F)F)cc12 | 2.5 | > 10 | > 10 | > 10
30 | COc1cc2nccc(Nc3cccc(Br)c3)c2cc1OC | 4.8 | > 10 | > 10 | 9.8
31 | N#Cc1ccc(Nc2ccnc3ccc(C(F)(F)F)cc23)cc1 | > 10 | > 10 | > 10 | 9.8
32 | C#Cc1cccc(Nc2ncnc3cc(OC)c(OC)cc23)c1 | 10 | > 10 | > 10 | 6.5
33 | COc1cc2nccc(Nc3cccc(C(C)=O)c3)c2cc1OC | 1.3 | > 10 | > 10 | 4.8
34 | C#Cc1cc(Nc2ncnc3cc(OC)c(OC)cc23)ccc1F | 0.6 | > 10 | > 10 | 7.6
35 | FC(F)(F)c1ccc2nccc(Nc3ccc(Br)cc3)c2c1 | 6.3 | > 10 | > 10 | 4.1
36 | COc1ccc(Nc2ccnc3ccc(C(F)(F)F)cc23)c(OC)c1 | 3.4 | > 10 | > 10 | > 10
37 | C#Cc1cccc(Nc2c(C#N)cnc3ccc(OC)cc23)c1 | > 10 | > 10 | > 10 | 8.9
38 | Fc1cc(Nc2ccnc3ccc(C(F)(F)F)cc23)cc(F)c1F | > 10 | > 10 | > 10 | > 10
39 | C#Cc1cccc(Nc2c(C#N)cnc3cc(OC)c(OC)cc23)c1 | > 10 | > 10 | > 10 | 3
40 | N#Cc1cccc(Nc2ccnc3ccc(C(F)(F)F)cc23)c1 | 2.2 | > 10 | > 10 | > 10
41 | COc1ccc(OC)c(Nc2ccnc3ccc(C(F)(F)F)cc23)c1 | 1.7 | > 10 | > 10 | 0.25
42 | FC(F)(F)c1ccc2nccc(Nc3cccc(I)c3)c2c1 | 1.4 | > 10 | > 10 | 6.1
43 | C#Cc1cccc(Nc2ncnc3ccc(OC)cc23)c1 | 8 | > 10 | > 10 | 9.7
44 | FC(F)(F)c1cccc(Nc2ccnc3ccc(C(F)(F)F)cc23)c1 | 4.8 | > 10 | > 10 | 5.7
45 | Fc1cccc(Nc2ccnc3ccc(C(F)(F)F)cc23)c1 | > 10 | > 10 | > 10 | > 10
46 | COc1cc(Nc2ncnc3ccc(C(F)(F)F)cc23)cc(OC)c1OC | > 10 | > 10 | > 10 | > 10
47 | CS(=O)(=O)c1cccc(Nc2ccnc3ccc(C(F)(F)F)cc23)c1 | > 10 | > 10 | > 10 | > 10
48 | Fc1ccc(Nc2ccnc3ccc(C(F)(F)F)cc23)cc1F | > 10 | > 10 | > 10 | > 10
49 | C#Cc1cc(Nc2ncnc3cc(I)ccc23)ccc1F | > 10 | > 10 | > 10 | > 10
50 | C#Cc1cccc(Nc2ccnc3ccc(C(F)(F)F)cc23)c1 | 2.5 | > 10 | > 10 | 3.8
51 | COc1ccc(Nc2ccnc3ccc(C(F)(F)F)cc23)cc1OC | > 10 | > 10 | > 10 | 8.9
52 | C#Cc1cccc(Nc2ccnc3ccc(OC)cc23)c1 | > 10 | > 10 | > 10 | 4.3
53 | C#Cc1cccc(Nc2c(C#N)cnc3cc(OC)ccc23)c1 | > 10 | > 10 | > 10 | 7.8

From ChEMBL document CHEMBL5036348, “Identification and evaluation of 4-anilinoquin(az)olines as potent inhibitors of both dengue virus (DENV) and Venezuelan equine encephalitis virus (VEEV)” (Bioorg Med Chem Lett, 2021)
